Where a SMILES comes first, the peptide text is derived from it. [ ]: non-standard residue; d: D form. Phe(4-NH2) = Nc1ccc(C[C@H](N)C(=O)O)cc1; Sta = CC(C)C[C@H](N)[C@@H](O)CC(=O)O

For the assay, the system named is HIV-1 protease. Particulars: for potency relative to the P-9 peptide: protease inhibitor potency compared with P-9 as standard.

Experimental: A 100 µl control reaction was established containing 10 to 20 µI of crude protease, about 2 µl of the gag supernatant and final concentrations of 50 mM MES Buffer (pH 5.5), 1 mM DTT and 25 mM NaCI. Inhibition assays were performed by pre-incubating the crude protease with an inhibitory compound at room temperature for about 30 minutes before adding the gag supernatant to the reaction. Both the control and the experimental reactions were incubated from three to sixteen hours at 37° C. The reactions were then electrophoresed and blotted onto nitrocellulose filters. Monoclonal antibodies which recognize epitopes on p24 and p17 viral proteins were contacted with the filter then visualized using standard biotinylation or radionuclear techniques. Compounds which prevented the maturation of the gag polypeptide into mature viral proteins p24 and p17 were then ranked according to their HIV-1 protease inhibitory activity.
About 10 to 20 µl of the crude protease lysate was mixed with about 2 µl of the gag supernatant. The mixture was then brought to a total volume of 100 µl by the addition of distilled water, MES buffer (2-(N-Morpholino]ethanesulfonic acid) (pH 5.5 to a total concentration of 50 mM), DTT (dithiolthreitol) (to a total concentration of 1 mM) and NaCl (to a total concentration of 25 mM). This reaction mixture was mixed gently then incubated from 3 hours to overnight at 37° C.
Next, about 25 µl of the reaction was mixed with loading buffer and subjected to polyacrylamide gel electrophoresis on a 12.5% Laemmli gel under reducing conditions. The proteins were transferred onto a nitrocellulose filter using standard "Western Blot" electrophoresis at 500 mAmps for 35 minutes at room temperature. The filter was air-dried, then non-specific immunoreaction was blocked by washing the filter for 30 minutes at 4° C in a solution of 3% non-fat dry milk powder in phosphate buffered saline (PBS).
Monoclonal antibodies against p17 and/or p24 (available from Dupont, Wilmington, Delaware) were added to about 40 ml of the 3% milk/PBS solution to a final concentration of 2 µg/ml. The nitrocellulose filter was added to the antisera solution and slowly rocked for 2 hours at 4 C. The filter then was removed and washed 5 times with PBS, then the maturation of the gag gene was determined by reaction with 1^125- labeled protein A or by reaction with biotinylated anti-mouse lgG antibodies (Vecta Stain@).
To run the I^125-labeled protein A reaction, about 10 µCi of I^125-labeled protein A was added to 100 ml of the 3% milk/PBS solution. The filter was rocked in this solution for 2 hours at 4° C, washed three times with PBS, then two times with PBS and 0.1% Tween 20. The filter was then air-dried and exposed to x-ray film for autoradiography.
The Vecta Stain@ (Vector Laboratories, Burlingome, California) procedure was performed according to the manufacturer's recommendations. Four drops of the biotinylated IgG was added to 40 mls of the 3% Milk/PBS solution, then the filter was rocked in this solution for 60 minutes at 4° C. The filter was washed five times with PBS, then rocked for 30 to 60 minutes at 4 C in Reagent ABC. Reagent ABC was prepared by adding 4 drops of Reagent A (Avidin DH) and 4 drops of Reagent B (biotinylated peroxidase) to 20 ml of 3% Milk/PBS. The filter was then washed five times with PBS, then the filter was developed by washing it for 5 to 10 minutes in 10 ml of PBS containing 0.02% H202 and 10 ml of 4-chloro-1 naphthol. When the color was fully developed, the filter was washed with distilled water and air-dried.
Following the procedure, it is simple to determine the activity of the HIV-1 protease encoded on plasmid pHP10D and produced in E. coli cells.

In the case of `CC(=O)N[C@H](C(=O)N[C@@H](CC(C)C)[C@@H](O)CC(=O)N[C@@H](CC(C)C)C(=O)N[C@@H](Cc1ccccc1)C(N)=O)C(C)C` [Ac-Val-Statine-Leu-Phe-NH2] (Ac-V[Sta]LF-NH2), the “HIV protease inhibitory activity (result in words)” value is “inactive”.
In the case of `COc1ccc(C[C@H](NC(C)=O)C(=O)N[C@@H](Cc2ccccc2)C(=O)N[C@H](C(=O)N[C@@H](CC(C)C)[C@@H](O)CC(=O)N[C@@H](CC(C)C)C(=O)N[C@@H](Cc2ccccc2)C(=O)N[C@@H](Cc2ccc(O)cc2)C(=O)N[C@@H](CC(C)C)C(N)=O)C(C)C)cc1` [Ac-YOM-Phe-Val-Statine-Leu-Phe-Tyr-Leu-NH2] (Ac-Y(Me)FV[Sta]LFYL-NH2), the “HIV protease inhibitory activity (result in words)” value was “totally inactive”.
For the compound `CC(C)C[C@H](NC(=O)C[C@H](O)[C@H](CC(C)C)NC(=O)[C@@H](NC(=O)[C@H](Cc1ccccc1)NC(=O)[C@@H]1CCCN1C(=O)[C@H](Cc1ccc(N)cc1)NC(=O)[C@@H]1CCCN1)C(C)C)C(=O)N[C@@H](Cc1ccccc1)C(=O)N[C@@H](Cc1ccc(N)cc1)C(N)=O` [P-1, H-Pro-paF-Pro-Phe-Val-Statine-Leu-Phe-paF-NH2] (H-P[Phe(4-NH2)]PFV[Sta]LF[Phe(4-NH2)]-NH2), the “potency relative to the R,S-diastereomer (P-28)” value ((S,S) Statine versus R,S-Sta peptide) was determined as 20 times.
Take `COc1ccc(C[C@H](NC(C)=O)C(=O)N2CCC[C@H]2C(=O)N[C@@H](Cc2ccccc2)C(=O)N[C@H](C(=O)N[C@@H](CC(C)C)[C@@H](O)CC(=O)N[C@@H](CC(C)C)C(=O)N[C@@H](Cc2ccccc2)C(N)=O)C(C)C)cc1` [P-9, Ac-YOM-Pro-Phe-Val-Statine-Leu-Phe-NH2] (Ac-Y(Me)PFV[Sta]LF-NH2): the “potency relative to P-7” value (protease inhibitor potency compared with P-7) is “increases the potency three to four times”.
As to `COc1ccc(C[C@H](NC(=O)[C@H](Cc2ccc(O)cc2)NC(=O)CNC(C)=O)C(=O)N2CCC[C@H]2C(=O)N[C@@H](Cc2ccccc2)C(=O)N[C@H](C(=O)N[C@@H](CC(C)C)[C@@H](O)CC(=O)N[C@@H](CC(C)C)C(=O)N[C@@H](Cc2ccccc2)C(N)=O)C(C)C)cc1` [P-29, Ac-Gly-Tyr-YOM-Pro-Phe-Val-Statine-Leu-Phe-NH2] (Ac-GYY(Me)PFV[Sta]LF-NH2), the “potency relative to the P-9 peptide” value is reported as “three times more potent”.
Consider `COc1ccc(C[C@H](NC(C)=O)C(=O)N2CCC[C@H]2C(=O)N[C@@H](Cc2ccccc2)C(=O)N[C@H](C(=O)N[C@@H](CC(C)C)[C@@H](O)CC(=O)N[C@@H](CC(C)C)C(=O)N[C@@H](Cc2ccccc2)C(=O)N[C@@H](Cc2ccc(O)cc2)C(=O)N[C@@H](CC(C)C)C(N)=O)C(C)C)cc1` [P-30, Ac-YOM-Pro-Phe-Val-Statine-Leu-Phe-Tyr-Leu-NH2] (Ac-Y(Me)PFV[Sta]LFYL-NH2), for which the “potency relative to the P-9 peptide” value is “about 1.5 times”.

The values are drawn from EP0431784A2, “Methods for treating retroviral infection” (ELI LILLY AND COMPANY, priority 1989, dated 1991).
